Laboratory results from paper PMC4756849, “A novel high-throughput activity assay for the Trypanosoma brucei editosome enzyme REL1 and other RNA ligases” (Nucleic Acids Research, 2015).
Structures can show the parent of a compound that is named as a salt. Where two headings read alike, the source gives them in different places.

Columns and labels:
Trypanosoma brucei REL1 [1] = target: T1, Trypanosoma brucei REL1 (Trypanosoma brucei brucei, UniProt P86926); assay: biochemical; type: biochemical
T1 construct: made in house; host or cells: Escherichia coli BL21 (DE3), polycistronic pET-21d construct
T1 sequence (P86926 51-469): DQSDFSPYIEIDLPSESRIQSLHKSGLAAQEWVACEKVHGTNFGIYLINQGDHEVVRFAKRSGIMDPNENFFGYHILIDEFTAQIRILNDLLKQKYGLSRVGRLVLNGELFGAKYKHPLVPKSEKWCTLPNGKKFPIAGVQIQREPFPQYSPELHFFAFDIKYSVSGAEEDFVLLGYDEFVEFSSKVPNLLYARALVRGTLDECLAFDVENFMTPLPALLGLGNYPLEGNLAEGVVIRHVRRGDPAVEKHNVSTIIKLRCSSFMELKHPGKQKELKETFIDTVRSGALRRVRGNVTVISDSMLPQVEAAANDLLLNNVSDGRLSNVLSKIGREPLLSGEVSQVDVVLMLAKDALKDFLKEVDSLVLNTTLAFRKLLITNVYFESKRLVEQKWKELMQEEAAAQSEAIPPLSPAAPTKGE
Description: Substrate RNAs were annealed in the presence of 25 mM KCl, 12.5 mM Tris–HCl pH 8.0, 5 mM Mg(OAc)2 and 0.25 mM DTT at a concentration of 1 μM in 10-ml batches by incubation at 70°C for 10 min, followed by slow cooling to room temperature. Annealed substrate was stored at −80°C. For 2400 assays, 2.4 μl 100 mM ATP were added to 12 ml pre-annealed substrate and 5 μl of the mixture dispensed into each well of a 384-well assay plate (Greiner 788075). A total of 50 nl of LOPAC (Sigma-Aldrich; 2 mM in DMSO) or Maybridge Hitfinder (Thermo Fisher Scientific; 2 mM in DMSO) compounds were added per well using a Biomek FX instrument. Recombinant REL1 was diluted in 10% (v/v) glycerol, 300 mM NaCl, 2 mM DTT and 20 mM Tris–HCl pH 6.0 to a final concentration of 300 ng/μl. One hundred twenty microliter REL1 solution were added to 11.88 ml ligation buffer (5 mM KCl; 12.5 mM Tris–HCl pH 6.0; 1 mM Mg(OAc)2; 0.25 mM DTT, 0.2% (w/v) Triton X-100; 0.003% (w/v) Brij 35) and 5 μl of the REL1/ligation buffer mix were added to each well to start the reaction ([…] REL1 per well). A total of 50 μM NSC-42067 served as positive control for inhibition ([34]). As additional controls, each plate included reactions without inhibitor and reactions without REL1. After 30 min incubation at room temperature the reaction was stopped by adding 12.5 μl STOP solution (9 M urea; 20 mM EDTA). After a minimum incubation period of 15 min plates were read using a ratiometric wavelength read (excitation at 485 nm, detection at 665 and 535 nm). HTS was carried out at The Scripps Research Institute, San Diego, CA, USA.
To validate the suitability of the FRET-based REL1 activity assay for HTS, the assay conditions were adapted to 384-well format to facilitate a pilot screen. An ATP concentration of 10 μM was chosen as a compromise between sensitivity to inhibition and robust S:B ratio.
Figure 5. […] Data were plotted as% inhibition compared to controls without inhibitor and fitted to a sigmoidal curve. […] All experiments were carried out under optimized conditions, and means and standard deviations for three replicates are shown.

Trypanosoma brucei REL1 [2] = target: T1, Trypanosoma brucei REL1; assay: Non-denaturing PAGE of RNA ligation reaction by REL1; type: biochemical; conditions: increasing concentrations of compound, optimized conditions, Figure S4
Description: After ligation reaction, 20% (w/v) polyacrylamide gels were used to separate the RNA molecules by non-denaturing PAGE in Tris-borate-EDTA (TBE) buffer. For denaturing PAGE, gels contained 7 M urea. Gels were analyzed using a Typhoon FLA 7000 (GE Healthcare).
Figure S4. Non-denaturing PAGE showing inhibition of RNA ligation reaction by compound NSC42067. Lanes 1, 2 and 3 were loaded with the 16-nt 6-FAM 5’-RNA substrate, the 13-nt Cy5 3’- RNA substrate and a 29-nt dual 6-FAM/Cy5-labelled DNA oligo, respectively. Lane 4 was left empty.
Lanes 5 to 8 show products from standard reaction conditions and controls. Lanes 9 to 11 show the effects of increasing concentrations of NSC42067 in the assay. Ligation reactions were carried out under optimized conditions. The gel analysis confirmed the following:
Lanes 1 - 3: See Supplementary Figure S1.
Lanes 5 to 7: As before (compare Supplementary Figure S1), incubation of 5’- and 3’-RNAs with […]
The intensity of both bands increased with longer incubation time (compare lane 6 = 5 min with lane 7 = 30 min) and was dependent on the presence of REL1 (lane 5).
Figure S5. Structures of the hit compounds selected for validation.
Figure S6. Scatter plot showing the results of the second pilot screen. Compounds of the Maybridge library were incubated at 10 µM concentration in 384-well plates with REL1 (7.8 nM) in the presence […]
Stop buffer was added after 30 min. […]

human hemopoietic cells = conditions: cited from earlier work
T. brucei gambiense = system: T. brucei gambiense; design: method as in PMID 14982785; conditions: in vitro; cited from earlier work
[3] = single-shot HTS, 10 μM final compound concentration, 10 μM ATP, as suggested by HTS
[4] = dose-response curves, HTS/optimized assay conditions, 10 μM ATP, influenced by unknown percentage of active protein
[5] = dose-response curves, HTS/optimized assay conditions, 10 μM ATP, influenced by unknown percentage of active protein, read-out: IC50

SMILES	Inhibition at 10 μM (Trypanosoma brucei REL1 [1]; read-out: Inhibition at 10 μM)	Inhibition at 10 μM (Trypanosoma brucei REL1 [1]; [3])	other results
CSc1nc(N)c2ncn([C@@H]3O[C@H](COP(=O)(O)OP(=O)(O)O)[C@@H](O)[C@H]3O)c2n1 [2-(Methylthio)adenosine 5′-diphosphate trisodium salt hydrate]	22%		
Nc1nc(Cl)nc2c1ncn2[C@@H]1O[C@H](COP(=O)(O)OP(=O)(O)OP(=O)(O)O)[C@@H](O)[C@H]1O [2-Chloroadenosine triphosphate tetrasodium hydrate]	18%		
Cn1c(=O)c2[nH]c(-c3ccc(S(=O)(=O)O)cc3)nc2n(C)c1=O [8-(p-Sulfophenyl)theophylline hydrate]	23%		
CC(=O)OC[C@H]1O[C@@H]([S-])[C@H](OC(C)=O)[C@@H](OC(C)=O)[C@@H]1OC(C)=O.CCP(CC)CC.[Au+] [Auranofin]		24%	
OC[C@H]1O[C@H]([S-])[C@H](O)[C@@H](O)[C@@H]1O.[Au+] [Aurothioglucose hydrate]		93%	IC50 (μM) (Trypanosoma brucei REL1 [1]; [4]): low μM range; IC50 (Trypanosoma brucei REL1 [1]; [5]): 12100 nM
NC(=O)c1cc[n+](CC2=C(C(=O)[O-])N3C(=O)[C@@H](NC(=O)[C@@H](c4ccccc4)S(=O)(=O)[O-])[C@H]3SC2)cc1.[Na+] [Cefsulodin sodium salt hydrate]		46%	
CC(=O)OCC1=C(C(=O)[O-])N2C(=O)[C@@H](NC(=O)CCC[C@@H](N)C(=O)[O-])[C@H]2SC1.[Zn+2] [Cephalosporin C zinc salt]		21%	
CC(C)NC(C)Cc1ccc(I)cc1 (stereo not shown) [Iofetamine hydrochloride]	70%		
NC(N)=NOCC[C@H](N)C(=O)O [L-Canavanine]	46%		
O=C(O)/C(=C/c1c(C(=O)O)[nH]c2cc(Cl)cc(Cl)c12)c1ccccc1 [MDL 105,519]		18%	
O=[N+]([O-])/C=C/c1ccc2c(c1)OCO2 [MNS]		22%	
CN(N=O)c1ccc(O)c(O)c1 [Methyl-3,4-dephostatin]		97%	IC50 (Trypanosoma brucei REL1 [1]; [5]): > 50000 nM; Inhibition in dose-response curve (Trypanosoma brucei REL1 [1]; up to 50 μM concentration): no significant inhibition
O.O=c1c(O)c(-c2ccc(O)cc2O)oc2cc(O)cc(O)c12 [Morin hydrate]		17%	
O=c1c(O)c(-c2cc(O)c(O)c(O)c2)oc2cc(O)cc(O)c12 [Myricetin]	100%		IC50 (Trypanosoma brucei REL1 [1]): 1780 nM; IC50 (μM) (Trypanosoma brucei REL1 [1]; [4]): low μM range
O=C(Nc1cccc(C(=O)Nc2ccc(S(=O)(=O)[O-])c3cc(S(=O)(=O)[O-])cc(S(=O)(=O)[O-])c23)c1)Nc1cccc(C(=O)Nc2ccc(S(=O)(=O)[O-])c3cc(S(=O)(=O)[O-])cc(S(=O)(=O)[O-])c23)c1.[Na+].[Na+].[Na+].[Na+].[Na+].[Na+] [NF 023 hydrate]		79%	IC50 (μM) (Trypanosoma brucei REL1 [1]; [4]): low μM range; IC50 (Trypanosoma brucei REL1 [1]; [5]): 1950 nM
O=C(O)c1cc(O)c(O)c(OC(=O)c2cc(O)c(O)c(O)c2CNc2ccc3cc(S(=O)(=O)O)cc(S(=O)(=O)O)c3c2)c1 [NSC42067]			Effect on formation of the ligation product (gel) (Trypanosoma brucei REL1 [2]): inhibit formation of the ligation product; IC50 (Trypanosoma brucei REL1 [1]; [5]): 1400 nM
C#CCN[C@H](C)Cc1ccccc1.Cl [R-(–)-Desmethyldeprenyl hydrochloride]		38%	
Cc1ccc(C(=O)Nc2ccc(S(=O)(=O)O)c3cc(S(=O)(=O)O)cc(S(=O)(=O)O)c23)cc1NC(=O)c1cccc(NC(=O)Nc2cccc(C(=O)Nc3cc(C(=O)Nc4ccc(S(=O)(=O)O)c5cc(S(=O)(=O)O)cc(S(=O)(=O)O)c45)ccc3C)c2)c1 [Suramin sodium salt]	66%		IC50 (Trypanosoma brucei REL1 [1]): 2940 nM; IC50 (μM) (Trypanosoma brucei REL1 [1]; [4]): low μM range
N#C/C(=C\c1ccc(O)c(O)c1)C(=O)NCCCNC(=O)/C(C#N)=C/c1ccc(O)c(O)c1 [Tyrphostin AG 537]		93%	IC50 (μM) (Trypanosoma brucei REL1 [1]; [4]): low μM range; IC50 (Trypanosoma brucei REL1 [1]; [5]): 250 nM
CC(C)N(CCC(=O)c1ccc2ccccc2c1)Cc1ccccc1.Cl [ZM 39923 hydrochloride]		26%	
N.N.[Cl][Pt][Cl] [cis-Diammineplatinum(II) dichloride]		14%	
O=c1c(O)c(-c2ccc(O)c(O)c2)oc2cc(O)cc(O)c12 [quercertin]			Effect on human hemopoietic cells (human hemopoietic cells): without affecting human hemopoietic cells; LD50 (T. brucei gambiense): 10 µM
CC1(C)CCC2=C(O1)c1ccccc1C(=O)C2=O [β-Lapachone]	48%		
